Measurements as given in patent US20150315188A1, “COMPOUNDS AND METHODS FOR TREATMENT OF HYPERTENSION” (MEDIVATION TECHNOLOGIES, INC., priority 2012, published 2015).
“And” between values parts separate entries of the source, which are not always exact repeats. Equal entries are not always repeated.

Key:
Parameters in all cases: purchased Milipore (Millipore)
[1] = target: T1, Human adrenergic α2B receptor (Homo sapiens, UniProt P18089); assay: Radioligand binding, adrenergic α2B (Protocol Group B); settings: Protocol Group B; for Percentage inhibition of ligand binding, Adrenergic α2B (10 nM): 0.01 µM; for Percentage inhibition of ligand binding, Adrenergic α2B (30 nM): 0.03 µM
T1 sequence (P18089 1-450): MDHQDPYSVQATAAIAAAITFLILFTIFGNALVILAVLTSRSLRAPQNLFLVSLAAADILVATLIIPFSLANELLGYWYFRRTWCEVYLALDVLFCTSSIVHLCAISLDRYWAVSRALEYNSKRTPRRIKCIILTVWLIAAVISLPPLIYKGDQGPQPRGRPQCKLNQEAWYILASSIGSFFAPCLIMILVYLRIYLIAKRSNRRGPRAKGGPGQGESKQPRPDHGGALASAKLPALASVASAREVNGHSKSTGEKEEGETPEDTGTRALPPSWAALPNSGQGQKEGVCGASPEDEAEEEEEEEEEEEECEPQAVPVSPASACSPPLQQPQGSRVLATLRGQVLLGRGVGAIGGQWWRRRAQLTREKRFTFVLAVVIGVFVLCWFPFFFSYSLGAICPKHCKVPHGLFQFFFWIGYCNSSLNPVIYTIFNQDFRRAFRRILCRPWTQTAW
Description: To evaluate the activity of compounds in radioligand binding assays, Human adrenergic α2B receptor obtained from recombinant cell membrane from Milipore. Binding experiments were carried out in Tris-HCl buffer (50 mM Tris-HCl buffer, pH 7.4, 5 mM Mgcl2, 1 mM Cacl2, 0.2% BSA) as recommended by Milipore. […] Non-specific binding was estimated in the presence of 10 μM Rauwolscine. […] Compounds were screened at various concentrations, using 1% DMSO as vehicle. Biochemical assay results are presented as the percent Inhibition of specific binding in Table B1b, or estimated Ki values in Table B1c.

[2] = target: T2, Human adrenergic α2A receptor (Homo sapiens, UniProt P08913); assay: Radioligand binding, adrenergic α2A (Protocol Group B); settings: Protocol Group B; for Percentage inhibition of ligand binding, Adrenergic α2A (0.1 μM): 0.1 μM compound; for Percentage inhibition of ligand binding, Adrenergic α2A (0.3 μM) / inhibition at 0.3 µM: 0.3 μM compound; for inhibition at 0.3 µM: read-out: Percentage inhibition of ligand binding, Adrenergic α2A (0.3 μM)
T2 sequence (P08913 1-465): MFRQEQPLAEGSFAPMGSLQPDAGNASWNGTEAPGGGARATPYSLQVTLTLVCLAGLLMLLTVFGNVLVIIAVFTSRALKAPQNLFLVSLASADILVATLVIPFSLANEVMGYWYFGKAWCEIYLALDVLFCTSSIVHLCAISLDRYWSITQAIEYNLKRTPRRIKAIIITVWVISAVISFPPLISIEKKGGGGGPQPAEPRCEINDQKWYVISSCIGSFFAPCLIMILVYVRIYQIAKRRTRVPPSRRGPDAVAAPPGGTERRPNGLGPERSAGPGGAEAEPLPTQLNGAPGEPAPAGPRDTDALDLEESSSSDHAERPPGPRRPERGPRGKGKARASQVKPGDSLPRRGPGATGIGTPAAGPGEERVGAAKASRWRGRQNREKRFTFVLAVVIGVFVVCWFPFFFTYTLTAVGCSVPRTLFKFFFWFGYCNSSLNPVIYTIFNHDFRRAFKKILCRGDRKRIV
Description: To evaluate the activity of compounds in radioligand binding assays, Human adrenergic α2A receptor obtained from recombinant cell membrane from Milipore. Binding experiments were carried out in Tris-HCl buffer (50 mM Tris-HCl buffer, pH 7.4, 5 mM Mgcl2, 1 mM Cacl2, 0.2% BSA) as recommended by Milipore. Compounds were incubated with 2 nM [^3H]MK-912 for 60 min at 25° C. Non-specific binding was estimated in the presence of 10 μM Rauwolscine. Receptor proteins were harvested on 0.33% PEI(poly-ethylenemine) soaked GFC filter mat, the specifically bound [^3H]MK-912 were counted to determine total binding. Compounds were screened at various concentrations, using 1% DMSO as vehicle. percent inhibition of specific binding was determined. Biochemical assay results are presented as the percent Inhibition of specific binding in Table B1b, or estimated Ki values in Table B1c.

[3] = target: T3, Human adrenergic α1B receptor (Homo sapiens, UniProt P35368); assay: Radioligand binding, adrenergic α1B (Protocol Group B); settings: Protocol Group B; for Percentage inhibition of ligand binding, Adrenergic α1B (0.3 μM) / inhibition at 0.3 µM: 0.3 μM compound; for inhibition at 0.3 µM: read-out: Percentage inhibition of ligand binding, Adrenergic α1B (0.3 μM)
T3 sequence (P35368 1-520): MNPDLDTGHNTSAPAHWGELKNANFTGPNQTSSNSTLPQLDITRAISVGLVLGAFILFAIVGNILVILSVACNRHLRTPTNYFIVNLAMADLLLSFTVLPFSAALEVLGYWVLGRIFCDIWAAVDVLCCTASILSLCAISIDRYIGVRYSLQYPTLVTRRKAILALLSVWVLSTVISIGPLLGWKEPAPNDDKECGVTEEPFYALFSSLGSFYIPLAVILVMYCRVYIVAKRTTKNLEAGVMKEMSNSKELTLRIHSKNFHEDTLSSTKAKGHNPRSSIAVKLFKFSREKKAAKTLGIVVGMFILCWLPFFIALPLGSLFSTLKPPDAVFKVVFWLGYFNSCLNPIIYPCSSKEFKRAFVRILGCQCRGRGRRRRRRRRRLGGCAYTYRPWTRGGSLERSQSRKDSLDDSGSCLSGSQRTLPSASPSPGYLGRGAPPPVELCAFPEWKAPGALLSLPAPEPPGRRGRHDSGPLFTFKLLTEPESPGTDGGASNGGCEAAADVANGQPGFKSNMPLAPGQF
Description: To evaluate the activity of compounds in radioligand binding assays, Human adrenergic α1B receptor obtained from recombinant cell membrane from Milipore. Binding experiments were carried out in Tris-HCl buffer (50 mM Tris-HCl buffer, pH 7.4, 10 mM Mgcl2, 1 mM EDTA) as recommended by Milipore. Compounds were incubated with 0.3 nM [^3H]Prazosin for 60 min at 25° C. Non-specific binding was estimated in the presence of 10 μM prazosin. Receptor proteins were harvested on 0.33% PEI(poly-ethylenemine) soaked GFC filter mat, the specifically bound [^3H]Prazosin were counted to determine total binding. Compounds were screened at various concentrations, using 1% DMSO as vehicle. percent inhibition of specific binding was determined. Biochemical assay results are presented as the percent Inhibition of specific binding in Table B1b, or estimated Ki values in Table B1c.

Row | SMILES | Percentage inhibition of ligand binding, Adrenergic α2B (10 nM) ([1]; 10 nM compound) [%] | Percentage inhibition of ligand binding, Adrenergic α2B (30 nM) ([1]; 30 nM compound) | Percentage inhibition of ligand binding, Adrenergic α2B (0.1 μM) ([1]; 0.1 μM compound) [%] | Percentage inhibition of ligand binding, Adrenergic α2A (0.1 μM) [2] [%] | Percentage inhibition of ligand binding, Adrenergic α2A (0.3 μM) [2] [%] | Percentage inhibition of ligand binding, Adrenergic α1B (0.1 μM) ([3]; 0.1 μM compound) [%] | Percentage inhibition of ligand binding, Adrenergic α1B (0.3 μM) [3] [%] | inhibition at 0.1 µM ([1]; 0.1 μM compound, read-out: Percentage inhibition of ligand binding, Adrenergic α2B (0.1 μM)) [%] | inhibition at 0.3 µM [2] [%] | inhibition at 0.3 µM [3] [%] | inhibition at 0.01 µM ([1]; 10 nM compound, read-out: Percentage inhibition of ligand binding, Adrenergic α2B (10 nM)) [%] | inhibition at 0.03 µM ([1]; 30 nM compound, read-out: Percentage inhibition of ligand binding, Adrenergic α2B (30 nM)) [%] | inhibition at 0.1 µM ([3]; 0.1 μM compound, read-out: Percentage inhibition of ligand binding, Adrenergic α1B (0.1 μM)) [%]
1 | CN1CCc2c(c3cc(C(F)(F)F)ccc3n2CC(OC2CCCC2)c2ccncc2)C1 (single isomer, unassigned) [60b] | 6 | 28% | 59 | 3 | 12 | −9 | 8 | – | – | – | – | – | –
2 | OC(Cn1c2c(c3cc(F)ccc31)C1CCCN1CC2)c1ccncc1 (single isomer, unassigned) [18d] | 11 | 32% and 36% | 79 | 8 | 20 | 15 | 24 | – | – | – | – | – | –
3 | Cc1cc(Cl)c2c(c1)c1c(n2CC(C)(O)c2ccncc2)CCN2CCCC12 (single isomer, unassigned) [91d] | −1 | 24% | – | −2 | 11 | −19 | 6 | – | – | – | – | – | –
4 | OC(Cn1c2c(c3cc(F)cc(F)c31)C1CCCN1CC2)c1ccncc1 (single isomer, unassigned) [144b] | – | 100% | – | 61 | – | 18 | – | – | – | – | – | – | –
5 | CC(O)(Cn1c2c(c3cc(F)ccc31)C1CCCN1CC2)c1cccnc1 (stereo not shown) [51b] | 45 | 69% | 86 | 13 | 34 | −8 | 4 | – | – | – | – | – | –
6 | Cc1cc(F)c2c(c1)c1c(n2CC(C)(O)c2ccncc2)CC2CCCN2C1 (single isomer, unassigned) [62a] | 21 | 45% | – | 14 | – | 22 | 43 | 72 | 30 | – | – | – | –
7 | Cc1cc(C)c2c(c1)c1c(n2CC(C)(O)c2cccnc2)CCN2CCCC12 (single isomer, unassigned) [44c] | −9 | 0% | – | 1 | 4 | 7 | 4 | – | – | – | – | – | –
8 | Cc1ccc2c(c1)c1c(n2CC(C)(O)c2cccnc2)CCN(C)C1CO (single isomer, unassigned) [16a] | −1 | −14% | 1 | 8 | – | 16 | – | – | 9 | 9 | – | – | –
9 | OC(Cn1c2c(c3cc(Cl)ccc31)C1CCCN1CC2)c1ccncc1 (single isomer, unassigned) [143a] | – | 89% | – | 44 | – | 91 | – | – | – | – | – | – | –
10 | Cc1ccc2c(c1)c1c(n2CC(C)(O)c2cccnc2)CC(CO)N(C)C1 (single isomer, unassigned) [15b] | 6 | −11% | 16 | 1 | 0 | 12 | 16 | – | – | – | – | – | –
11 | Cc1ccc2c(c1)c1c(n2CC(OC(N)=O)c2ccncc2)CCN(C)C1 (single isomer, unassigned) [8b] | – | – | 26 | 7 | – | – | – | – | 10 | 14 | 13 | 27 | 9
